Results published in PubChem BioAssay AID1918994 (Molecular Pharmacology Branch, DTP, NCI, 2023).

Test system: 292921-168-R-J2-PDC complex spheroid growth
Test: Anticancer human tumor 292921-168-R-J2-PDC patient-derived pancreatic carcinoma cell line growth inhibition [AhR]
Details: second compound 3.16 µM; first compound 0.3 µM; active compounds read low
In short: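 Agents were dosed in half-log steps down from roughly clinical Cmax, or from 10 microM where Cmax was unknown, alone and with AhR antagonists. Read-out: percent test/control growth of tumor spheroids containing HUVEC and MSC stromal cells.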
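Note: spheroids exposed to compounds for seven days after three days of growth.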

With `CCc1c2c(nc3ccc(O)cc13)-c1cc3c(c(=O)n1C2)COC(=O)[C@]3(O)CC` + Cc1ccccc1N=Nc1ccc(NC(=O)c2ccnn2C)c(C)c1 the viability, T/C was 3.01%.

Same assay, conditions: second compound 3.16 µM; first compound 0.316 µM; active compounds read low

Compared with `COc1cc(Nc2ncc3c(n2)-c2ccc(Cl)cc2C(c2c(F)cccc2OC)=NC3)ccc1C(=O)O` + Cc1ccccc1N=Nc1ccc(NC(=O)c2ccnn2C)c(C)c1, `Nc1ccccc1NC(=O)c1ccc(CNC(=O)OCc2cccnc2)cc1` + Cc1ccccc1N=Nc1ccc(NC(=O)c2ccnn2C)c(C)c1 is higher in viability, T/C: 40.6% for the first, 50.7% for the second.

Compared with `O=C(C=Cc1cccc(S(=O)(=O)Nc2ccccc2)c1)NO` + Cc1ccccc1N=Nc1ccc(NC(=O)c2ccnn2C)c(C)c1, `O=C(c1cc(Cc2n[nH]c(=O)c3ccccc23)ccc1F)N1CCN(C(=O)C2CC2)CC1` + Cc1ccccc1N=Nc1ccc(NC(=O)c2ccnn2C)c(C)c1 is higher in viability, T/C: 49.1% for the first, 72.5% for the second.

Same assay, conditions: second compound 3.16 µM; first compound 1 µM; active compounds read low

First: COc1cc(Nc2ncc3c(n2)-c2ccc(Cl)cc2C(c2c(F)cccc2OC)=NC3)ccc1C(=O)O + Cc1ccccc1N=Nc1ccc(NC(=O)c2ccnn2C)c(C)c1
Second: Nc1ccccc1NC(=O)c1ccc(CNC(=O)OCc2cccnc2)cc1 + Cc1ccccc1N=Nc1ccc(NC(=O)c2ccnn2C)c(C)c1
The viability, T/C of the first is higher: 36.5% for the first, 33.4% for the second.

Going from `O=C(C=Cc1cccc(S(=O)(=O)Nc2ccccc2)c1)NO` + Cc1ccccc1N=Nc1ccc(NC(=O)c2ccnn2C)c(C)c1 to `O=C(c1cc(Cc2n[nH]c(=O)c3ccccc23)ccc1F)N1CCN(C(=O)C2CC2)CC1` + Cc1ccccc1N=Nc1ccc(NC(=O)c2ccnn2C)c(C)c1, the viability, T/C rises from 34.9% to 67.4%.

Same assay, conditions: second compound 3.16 µM; first compound 3.16 µM; active compounds read low

First: COc1cc(Nc2ncc3c(n2)-c2ccc(Cl)cc2C(c2c(F)cccc2OC)=NC3)ccc1C(=O)O + Cc1ccccc1N=Nc1ccc(NC(=O)c2ccnn2C)c(C)c1
Second: Nc1ccccc1NC(=O)c1ccc(CNC(=O)OCc2cccnc2)cc1 + Cc1ccccc1N=Nc1ccc(NC(=O)c2ccnn2C)c(C)c1
The viability, T/C of the first is higher: 34.8% for the first, 23.7% for the second.

Compared with `O=C(C=Cc1cccc(S(=O)(=O)Nc2ccccc2)c1)NO` + Cc1ccccc1N=Nc1ccc(NC(=O)c2ccnn2C)c(C)c1, `O=C(c1cc(Cc2n[nH]c(=O)c3ccccc23)ccc1F)N1CCN(C(=O)C2CC2)CC1` + Cc1ccccc1N=Nc1ccc(NC(=O)c2ccnn2C)c(C)c1 is higher in viability, T/C: 35.2% for the first, 63.6% for the second.

Same assay, conditions: second compound 3.16 µM; first compound 10 µM; active compounds read low

Going from `COc1cc(Nc2ncc3c(n2)-c2ccc(Cl)cc2C(c2c(F)cccc2OC)=NC3)ccc1C(=O)O` + Cc1ccccc1N=Nc1ccc(NC(=O)c2ccnn2C)c(C)c1 to `Nc1ccccc1NC(=O)c1ccc(CNC(=O)OCc2cccnc2)cc1` + Cc1ccccc1N=Nc1ccc(NC(=O)c2ccnn2C)c(C)c1, the viability, T/C falls from 23.1% to 10.3%.

Going from `O=C(C=Cc1cccc(S(=O)(=O)Nc2ccccc2)c1)NO` + Cc1ccccc1N=Nc1ccc(NC(=O)c2ccnn2C)c(C)c1 to `O=C(c1cc(Cc2n[nH]c(=O)c3ccccc23)ccc1F)N1CCN(C(=O)C2CC2)CC1` + Cc1ccccc1N=Nc1ccc(NC(=O)c2ccnn2C)c(C)c1, the viability, T/C rises from 2.03% to 58.9%.

Same assay, conditions: second compound 10 µM; first compound 0.000949 µM; active compounds read low

Compared with `CC(C)CC(NC(=O)C(Cc1ccccc1)NC(=O)c1cnccn1)B(O)O` (stereo not drawn) + Cc1ccccc1N=Nc1ccc(NC(=O)c2ccnn2C)c(C)c1, `CCc1c2c(nc3ccc(O)cc13)-c1cc3c(c(=O)n1C2)COC(=O)[C@]3(O)CC` + Cc1ccccc1N=Nc1ccc(NC(=O)c2ccnn2C)c(C)c1 is lower in viability, T/C: 59.9% for the first, 47.4% for the second.

Same assay, conditions: second compound 10 µM; first compound 0.003 µM; active compounds read low

Compared with `CC(C)CC(NC(=O)C(Cc1ccccc1)NC(=O)c1cnccn1)B(O)O` (stereo not drawn) + Cc1ccccc1N=Nc1ccc(NC(=O)c2ccnn2C)c(C)c1, `CCc1c2c(nc3ccc(O)cc13)-c1cc3c(c(=O)n1C2)COC(=O)[C@]3(O)CC` + Cc1ccccc1N=Nc1ccc(NC(=O)c2ccnn2C)c(C)c1 is lower in viability, T/C: 62% for the first, 40.9% for the second.

Same assay, conditions: second compound 10 µM; first compound 0.00949 µM; active compounds read low

Compared with `CC(C)CC(NC(=O)C(Cc1ccccc1)NC(=O)c1cnccn1)B(O)O` (stereo not drawn) + Cc1ccccc1N=Nc1ccc(NC(=O)c2ccnn2C)c(C)c1, `CCc1c2c(nc3ccc(O)cc13)-c1cc3c(c(=O)n1C2)COC(=O)[C@]3(O)CC` + Cc1ccccc1N=Nc1ccc(NC(=O)c2ccnn2C)c(C)c1 is higher in viability, T/C: 15.7% for the first, 17.5% for the second.

Same assay, conditions: second compound 10 µM; first compound 0.03 µM; active compounds read low

Compared with `CC(C)CC(NC(=O)C(Cc1ccccc1)NC(=O)c1cnccn1)B(O)O` (stereo not drawn) + Cc1ccccc1N=Nc1ccc(NC(=O)c2ccnn2C)c(C)c1, `CCc1c2c(nc3ccc(O)cc13)-c1cc3c(c(=O)n1C2)COC(=O)[C@]3(O)CC` + Cc1ccccc1N=Nc1ccc(NC(=O)c2ccnn2C)c(C)c1 is higher in viability, T/C: 1.7% for the first, 10.8% for the second.

Same assay, conditions: second compound 10 µM; first compound 0.0316 µM; active compounds read low

First: COc1cc(Nc2ncc3c(n2)-c2ccc(Cl)cc2C(c2c(F)cccc2OC)=NC3)ccc1C(=O)O + Cc1ccccc1N=Nc1ccc(NC(=O)c2ccnn2C)c(C)c1
Second: Nc1ccccc1NC(=O)c1ccc(CNC(=O)OCc2cccnc2)cc1 + Cc1ccccc1N=Nc1ccc(NC(=O)c2ccnn2C)c(C)c1
The viability, T/C of the first is lower: 34% for the first, 48.9% for the second.

First: O=C(C=Cc1cccc(S(=O)(=O)Nc2ccccc2)c1)NO + Cc1ccccc1N=Nc1ccc(NC(=O)c2ccnn2C)c(C)c1
Second: O=C(c1cc(Cc2n[nH]c(=O)c3ccccc23)ccc1F)N1CCN(C(=O)C2CC2)CC1 + Cc1ccccc1N=Nc1ccc(NC(=O)c2ccnn2C)c(C)c1
The viability, T/C of the first is lower: 44.2% for the first, 50.6% for the second.

Same assay, conditions: second compound 10 µM; first compound 0.0949 µM; active compounds read low

First: CC(C)CC(NC(=O)C(Cc1ccccc1)NC(=O)c1cnccn1)B(O)O (stereo not drawn) + Cc1ccccc1N=Nc1ccc(NC(=O)c2ccnn2C)c(C)c1
Second: CCc1c2c(nc3ccc(O)cc13)-c1cc3c(c(=O)n1C2)COC(=O)[C@]3(O)CC + Cc1ccccc1N=Nc1ccc(NC(=O)c2ccnn2C)c(C)c1
The viability, T/C of the first is lower: 1.05% for the first, 5.21% for the second.

Same assay, conditions: second compound 10 µM; first compound 0.1 µM; active compounds read low

Compared with `COc1cc(Nc2ncc3c(n2)-c2ccc(Cl)cc2C(c2c(F)cccc2OC)=NC3)ccc1C(=O)O` + Cc1ccccc1N=Nc1ccc(NC(=O)c2ccnn2C)c(C)c1, `Nc1ccccc1NC(=O)c1ccc(CNC(=O)OCc2cccnc2)cc1` + Cc1ccccc1N=Nc1ccc(NC(=O)c2ccnn2C)c(C)c1 is higher in viability, T/C: 35.5% for the first, 42.7% for the second.

Going from `O=C(C=Cc1cccc(S(=O)(=O)Nc2ccccc2)c1)NO` + Cc1ccccc1N=Nc1ccc(NC(=O)c2ccnn2C)c(C)c1 to `O=C(c1cc(Cc2n[nH]c(=O)c3ccccc23)ccc1F)N1CCN(C(=O)C2CC2)CC1` + Cc1ccccc1N=Nc1ccc(NC(=O)c2ccnn2C)c(C)c1, the viability, T/C rises from 41.6% to 59.5%.

Same assay, conditions: second compound 10 µM; first compound 0.3 µM; active compounds read low

Compared with `CC(C)CC(NC(=O)C(Cc1ccccc1)NC(=O)c1cnccn1)B(O)O` (stereo not drawn) + Cc1ccccc1N=Nc1ccc(NC(=O)c2ccnn2C)c(C)c1, `CCc1c2c(nc3ccc(O)cc13)-c1cc3c(c(=O)n1C2)COC(=O)[C@]3(O)CC` + Cc1ccccc1N=Nc1ccc(NC(=O)c2ccnn2C)c(C)c1 is higher in viability, T/C: 0.32% for the first, 3.01% for the second.

Same assay, conditions: second compound 10 µM; first compound 0.316 µM; active compounds read low

Going from `COc1cc(Nc2ncc3c(n2)-c2ccc(Cl)cc2C(c2c(F)cccc2OC)=NC3)ccc1C(=O)O` + Cc1ccccc1N=Nc1ccc(NC(=O)c2ccnn2C)c(C)c1 to `Nc1ccccc1NC(=O)c1ccc(CNC(=O)OCc2cccnc2)cc1` + Cc1ccccc1N=Nc1ccc(NC(=O)c2ccnn2C)c(C)c1, the viability, T/C rises from 33.4% to 34.7%.

Compared with `O=C(C=Cc1cccc(S(=O)(=O)Nc2ccccc2)c1)NO` + Cc1ccccc1N=Nc1ccc(NC(=O)c2ccnn2C)c(C)c1, `O=C(c1cc(Cc2n[nH]c(=O)c3ccccc23)ccc1F)N1CCN(C(=O)C2CC2)CC1` + Cc1ccccc1N=Nc1ccc(NC(=O)c2ccnn2C)c(C)c1 is higher in viability, T/C: 36.9% for the first, 54.6% for the second.

Same assay, conditions: second compound 10 µM; first compound 1 µM; active compounds read low

First: COc1cc(Nc2ncc3c(n2)-c2ccc(Cl)cc2C(c2c(F)cccc2OC)=NC3)ccc1C(=O)O + Cc1ccccc1N=Nc1ccc(NC(=O)c2ccnn2C)c(C)c1
Second: Nc1ccccc1NC(=O)c1ccc(CNC(=O)OCc2cccnc2)cc1 + Cc1ccccc1N=Nc1ccc(NC(=O)c2ccnn2C)c(C)c1
The viability, T/C of the first is higher: 33.8% for the first, 32.3% for the second.

First: O=C(C=Cc1cccc(S(=O)(=O)Nc2ccccc2)c1)NO + Cc1ccccc1N=Nc1ccc(NC(=O)c2ccnn2C)c(C)c1
Second: O=C(c1cc(Cc2n[nH]c(=O)c3ccccc23)ccc1F)N1CCN(C(=O)C2CC2)CC1 + Cc1ccccc1N=Nc1ccc(NC(=O)c2ccnn2C)c(C)c1
The viability, T/C of the first is lower: 33.8% for the first, 62.6% for the second.

Same assay, conditions: second compound 10 µM; first compound 3.16 µM; active compounds read low

Going from `COc1cc(Nc2ncc3c(n2)-c2ccc(Cl)cc2C(c2c(F)cccc2OC)=NC3)ccc1C(=O)O` + Cc1ccccc1N=Nc1ccc(NC(=O)c2ccnn2C)c(C)c1 to `Nc1ccccc1NC(=O)c1ccc(CNC(=O)OCc2cccnc2)cc1` + Cc1ccccc1N=Nc1ccc(NC(=O)c2ccnn2C)c(C)c1, the viability, T/C falls from 30% to 17.7%.

Compared with `O=C(C=Cc1cccc(S(=O)(=O)Nc2ccccc2)c1)NO` + Cc1ccccc1N=Nc1ccc(NC(=O)c2ccnn2C)c(C)c1, `O=C(c1cc(Cc2n[nH]c(=O)c3ccccc23)ccc1F)N1CCN(C(=O)C2CC2)CC1` + Cc1ccccc1N=Nc1ccc(NC(=O)c2ccnn2C)c(C)c1 is higher in viability, T/C: 29.1% for the first, 49.7% for the second.

Same assay, conditions: second compound 10 µM; first compound 10 µM; active compounds read low

Going from `COc1cc(Nc2ncc3c(n2)-c2ccc(Cl)cc2C(c2c(F)cccc2OC)=NC3)ccc1C(=O)O` + Cc1ccccc1N=Nc1ccc(NC(=O)c2ccnn2C)c(C)c1 to `Nc1ccccc1NC(=O)c1ccc(CNC(=O)OCc2cccnc2)cc1` + Cc1ccccc1N=Nc1ccc(NC(=O)c2ccnn2C)c(C)c1, the viability, T/C falls from 20.5% to 8.67%.

First: O=C(C=Cc1cccc(S(=O)(=O)Nc2ccccc2)c1)NO + Cc1ccccc1N=Nc1ccc(NC(=O)c2ccnn2C)c(C)c1
Second: O=C(c1cc(Cc2n[nH]c(=O)c3ccccc23)ccc1F)N1CCN(C(=O)C2CC2)CC1 + Cc1ccccc1N=Nc1ccc(NC(=O)c2ccnn2C)c(C)c1
The viability, T/C of the first is lower: 4.17% for the first, 43.8% for the second.
